Experimental data: patent publication US12440471B2, “Compositions and methods for the treatment of bronchopulmonary dysplasia (BPD) and BPD-associated pulmonary hypertension” (AyuVis Research, Inc., priority 2021, dated 2025)

Experiments:
[1] = tested on: hyperoxia-exposed BPD mouse model; test: BPD mouse model: western blot of lung homogenates; type: in vivo
Procedure: Western Blot Analysis. Western blot analyses for TLR4 (Cell Signaling Technology, Danvers, MA; 1:1000), Ang2 (1:500; Sigma, St. Louis, MO), TGFβ, NFkB, TNFα, IL-10, IL-1(3, IL-4, Vegf, eNos, Vegf-D, BmpRII, Vinculin (1:500; SantaCruz, Dallas, TX), were performed, as previously described (Leary, Das et al. 2019), by loading 30 μg of lung protein, followed by immunoblotting with the above antibodies and visualizing with Odyssey infrared imaging system (LI-COR Biosciences, Lincoln, NE). Densitometric quantification was done using ImageJ after normalizing with Vinculin, the loading control housekeeping protein.

[2] = tested on: hyperoxia-exposed BPD mouse model; test: Hyperoxia-exposed BPD mouse model: dose response and lung morphometry; type: in vivo
Procedure: Simultaneously, the AVR-48 nanosuspension formulation IN (0.11 mg/kg) was tested as well as in solution form, IP and IV (10 mg/kg) (through the facial vein), and confirmed that all routes of administration gave similar outcomes. […] From the PK study, as described above, the bioavailability of the drug in the plasma and lungs were similar when delivered as solution formulation via either IN or IP routes. As the goal of this study is to develop AVR-48 as a commercially viable and applicable therapeutic candidate for BPD, the IP route was selected as the preferred mode of drug delivery in neonatal murine pups, with the rationale that it would be easier to deliver the drug systemically to preterm babies IV, rather than the IN route. The results and outcome of all the routes of administration have been presented in a cumulative manner, as the endpoint was similar for all routes of administration. […] FIG. 1 is a dose response study of AVR-48 at different doses of […], given IP. ****p<0.0001. N=5-7 mice per group. 10 mg/kg (IP) was selected as the most efficacious dose. IP: intraperitoneal; Hyp: hyperoxia; BPD: Bronchopulmonary dysplasia.
Formulation of AVR-48 for efficacy and toxicokinetic studies. For the mouse dose response efficacy studies, AVR-48 was reconstituted in 0.9% sterile normal saline to give a final dose concentration of […] as a colorless solution, and injected IP (30 μl) on P2 and P4. The PLGA encapsulated AVR-48 or the GFP-tagged analog was resuspended in deionized sterile water to make a nanosuspension with final dose concentration of 0.025, 0.05 and 0.11 mg/kg/drop. The surfactant Curosurf® (Cheisi Parma, Italy), available commercially, was delivered IN at a volume of 3 μl per nostril, on P2 and P4. For the toxicokinetic study of AVR-48 in rat pups, a formulation of 10% DMSO, 20% tetraglycol, 20% PEG 400, and 50% sterile water was made fresh before administration (Shah, Das et al. 2021).
For the hyperoxia experiment, newborn pups were exposed to 100% hyperoxia (P0), along with their mothers, in cages in an airtight Plexiglas chamber (OxyCycler; Biospherix, Redfield, NY, USA) as described previously by the present inventors (Syed, Das et al., 2017, Leary, Das et al. 2019, Das, Acharya et al. 2020, relevant portions incorporated herein) for 4 consecutive days (till P4) and removed to RA on P5 to be recovered till P14, so as to emulate the human BPD condition. All pups were sacrificed on P14 for further experimental analyses. The pups without any hyperoxia exposure served as the corresponding RA (normoxia) controls.
Histology, immunohistochemistry and immunofluorescence. Both the RA control and BPD mice were anesthetized (using an overdose of a cocktail of xylazine-ketamine) and lung and heart tissues were harvested after perfusion and fixed overnight in 4% paraformaldehyde. Fixed tissues were then washed in fresh PBS, dehydrated using 70% ethanol, cleared, and embedded in paraffin to be sectioned and stained with hematoxylin and eosin (H&E) for lung morphometry or immunohistochemistry/immunofluorescence as previously described (Leary, Das et al. 2019, Das, Achaiya et al. 2020, Das, Curstedt et al. 2020). Immunofluorescence staining was done for Ki67 (Abcam, 1:10) and Von Wilebrand Factor (vWF-DAKO, 1:100) on lung paraffin sections following the protocol as described earlier (Leary, Das et al. 2019) while TUNEL staining was done following the manufacturer's instructions (Roche).
Morphometry and quantification. To study chord length, septal thickness and radial alveolar count in the lungs, RV, LV and IVS thickness, 5 μm-thick left-lobe lung and heart paraffin-embedded sections were stained with H&E. Multiple randomly chosen areas (at least 10 areas) from each section were photographed using 100× total magnification. […]

[3] = 2 doses IP 10 mg/kg on P2 and P4, comparable to RA controls
[4] = IP dosing, doses 0.5, 2.0, 5.0 and 10 mg/kg

CC(=O)N[C@@H]1C(Oc2ccc([N+](=O)[O-])cc2)OC(CO)C(O)C1O (stereo partly drawn) [AVR-48]
inflammation in room air animals ([1]; RA+AVR-48 treated group): increased inflammation
IL-1β ([1]; lung homogenates, vs BPD): marked decrease
IL-13 ([1]; lung homogenates, vs BPD): marked decrease
TNFα ([1]; lung homogenates, vs BPD): marked decrease
nuclear factor kappa B (NFkB) ([1]; lung homogenates, vs BPD): marked decrease
Angiopoetin 2 (Ang2) ([1]; lung, vs BPD): significantly decreased
Vegf-D protein ([1]; lung, vs BPD): decreases
IL-10 ([1]; lung, vs BPD group): increased
Total vascular endothelial growth factor (Vegf) ([1]; lung, vs BPD group): increased considerably
bone morphometric protein receptor (BmpR)II ([1]; lung, vs BPD group): significantly decreased
endothelial nitric oxide synthase (eNOS) ([1]; lung, vs BPD group): significantly decreased
IL-4 ([1]; lungs, vs BPD group): decrease
TGFβ ([1]; lungs, vs BPD group): decrease
TLR4 expression in the lungs ([1]; whole lung homogenates, after treatment): increase in the expression of TLR4
prevention of the BPD phenotypes ([2]; 10 mg/kg IP): > 80%
chord length (alveolar sacs) [2, 3]: regained their normal shape and size
septal thickness (alveolar sacs) [2, 3]: regained their normal shape and size
radial alveolar counts (RAC) ([2]; 2 doses IP 10 mg/kg on P2 and P4, vs BPD): improved
chord length ([2]; AVR-48 administered adjuvantly with CS (Curosurf IN)): normal
interaction between the drug and CS ([2]; AVR-48 administered adjuvantly with CS in mouse pups): no adverse effect
minimum efficacious dose [2, 4]: 5.0 mg/kg
optimum / most efficacious dose [2, 4]: 10 mg/kg
minimum efficacious dose ([2]; juvenile mouse): 5 mg/kg/day
inflammatory cytokines in neonatal mouse pups with BPD ([2]; mouse, in vivo): decrease inflammatory cytokines
